How the values were obtained:
capillary permeability = settings: at 100 mg
[1] = system: formaldehyde induced arthritis; experiment: Formaldehyde arthritis; assay type: in vivo; settings: 100 mg/kg orally daily for 10 days
carrageenin oedema = experiment: Antiinflammatory action (rats), carrageenin oedema; assay type: in vivo; settings: for inhibition of carrageenin oedema: 200 mg/kg (p.o.); for inhibition (carrageenin): rats, 100 mg/kg p.o.
Protocol: Antiinflammatory action (Rats): Dose: 100 mg/kg p.o.
(ii) It produces 30% inhibition when given 1/2 hour before the injection of carrageenin.
Effect on carrageenin oedema at 200 mg/kg (p.o.)
(i) 60% inhibition when given 1 hour before the injection of carrageenin.
(iii) 62% of inhibition when given 1/2 hour after the injection of carrageenin.
Antiinflammatory action (Rats)
Effect on carrageenin oedema at 200 mg/kg

cotton pellet granuloma = experiment: Cotton pellet granuloma; assay type: in vivo; settings: 100 mg/kg orally daily for 7 days
Ulcerogenic properties = assay type: in vivo; settings: 100 mg/kg daily orally for 7 days
LD50 i.p. in mice = settings: mouse, in vivo, ip
[2] = Anti-inflammatory activity in a battery of tests (summary statement); assay type: in vivo
[3] = 1/2 hour after injection of carrageenin
[4] = 1/2 hour before injection of carrageenin

O=C(COC(=O)c1ccccc1NCCc1ccccc1)c1ccccc1 [2-N-β-phenethyl phenacyl anthranilate, 2-N-β-phenethyl-phenacyl anthranilate]
inhibition (mouse capillary permeability) (capillary permeability): 52%
inhibition of formaldehyde induced arthritis [1]: 14%
inhibition of carrageenin oedema (carrageenin oedema; [3]): 62%
inhibition of carrageenin oedema (carrageenin oedema; [4]): 43%
inhibition of carrageenin oedema (carrageenin oedema; 1 hour before injection of carrageenin): 60%
inhibition (carrageenin) (carrageenin oedema; [3]): 43%
inhibition (carrageenin) (carrageenin oedema; [4]): 30%
inhibition (carrageenin) (carrageenin oedema; one hour before injection of carrageenin): 44.5%
inhibition of cotton pellet granuloma (cotton pellet granuloma): 31%
ulcerogenic activity (Ulcerogenic properties): does not show any ulcerogenic activity
LD50 (LD50 i.p. in mice): > 800 mg/kg
anti-inflammatory activity [2]: potent anti-inflammatory activity

Reference: US4354033A, “Anthranilic acid esters” (Council of Scientific & Industrial Research, priority 1981, dated 1982)
